# Experimental data: patent US20220030866A1, “CONJUGATES OF AUXIN ANALOGS” (The State of Israel, Ministry of Agriculture & Rural …, priority 2019, published 2022)
# How the values were obtained:
# DR5:venus marker = assay: auxin activity by DR5:venus fluorescence in Arabidopsis plants; type: in vivo; settings: 10 μM
# Method: Imaging was performed using an SP8 Leica confocal microscope including solid-state lasers producing 405, 488, 514 and 552 nm light, and hybrid or PMT detectors. Objectives were either PL APO 20×/0.75, WD 0.62 mm or PL APO 63×/1.2 WD 0.3 mm. For fluorescence measurements, the Imaris™ spot detection option (Bitplane A.G.) was used to segment nuclei and calculate the average signal intensity.
# One technique for assessing auxin activity of the 4-CPA amino acid conjugates utilized plants expressing nucleus-localized, fluorescent DR5:venus marker, the expression level of which is an indicator of intracellular auxin activity [Laskowski et al., PLoS Biol 2008, 6:e307]. Four days old seedlings grown on regular MS medium were transferred to plates containing 10 μM of the tested compounds and fluorescence was inspected by confocal microscope after 24 hours.
# In order to assess the ability of the abovementioned sodium salts to penetrate the cells and activate an auxin response, an Arabidopsis DR5-Venus model was utilized (as described hereinabove). The plants were exposed to 10 μM of each compound for 24 hour; MS medium was used as a negative control, and the related Compounds 1p, 1r and 1t were used as positive controls.
# mung bean cuttings = assay: rooting of mung bean cuttings (number of adventitious roots per cutting); type: in vivo; settings: for rooting of mung bean cuttings (number of roots per cutting): 50 μM
# Outline: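 Readout was the number of adventitious roots per cutting in mung bean cuttings. Conjugates of 4-CPA, MCPA and 2-DP were tested alongside unconjugated IBA and 2-DP–glycine methyl ester.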
# Arabidopsis seedlings [1] = assay: root elongation inhibition in Arabidopsis seedlings; type: in vivo; settings: for effect on root elongation relative to control, in words: after 5 days
# Method: (§1) Adventitious roots (ARs) were induced in intact plants, using previously described procedures [Gutierrez et al., Plant Cell 2009, 21:3119-3132; Abu-Abied et al., Plant J 2012, 71:787-799; Rasmussen et al., Plant Physiol 2012, 158:1976-1987]. Briefly, seeds were germinated on MS/0.8% agar plates supplemented with 3% sucrose. The plates were kept in the dark for 2 days at 4° C., then 5 days at 22° C. in the dark, 2 days in the light, 3 days in the dark and then additional 4 days in the light to complete 2 weeks when roots were counted using a stereoscope. Sensitivity to auxin and/or auxin analogs was determined by following root elongation on vertical plates. The 4-day-old seedlings were transferred to MS plates containing 0.05 or 0.5 μM IAA and the root length was measured after 5 days, including the number of LRs in each root and calculation of the LR density. Each treatment experiment included 10-15 plants and was repeated 3 times.
# A common technique for evaluating auxin activity is by determining the ability of a compound to inhibit root elongation [Zolman et al., Genetics 2000, 156:1323-1337]. In order to use this assay for comparing auxin activities of different conjugates, the minimum concentration of free 4-CPA that is active in the root elongation inhibition assay was determined. Four days old seedlings were placed in vertical plates containing increasing concentrations of 4-CPA. The root lengths were marked daily during 5 days.
# Based on the above results, the effect of conjugates of 4-CPA (Compounds 1o-1t) on root elongation after 5 days was determined at concentrations of 50 nM.
# [2] = tested on: cuttings from mature Eucalyptus grandis trees; assay: rooting of cuttings from mature Eucalyptus grandis trees; type: in vivo
# Outline: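 Cuttings (12-15 cm, two upper leaves halved) from branches of 8-year-old net-house plants; bases dipped 1 min in 6000 ppm IBA potassium salt plus 50 μM conjugate, leaves sprayed with 50 μM conjugate in 0.5% Triton X-100. Rooted at 25° C, 90% humidity, peat:vermiculite:polystyrene 1:2:3; rooting scored after 30-60 days.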
# [3] = tested on: cuttings from mature Eucalyptus grandis trees; assay: as above; type: in vivo; settings: 100 μM compound by submerging or spraying, with 6000 ppm IBA
# Arabidopsis seedlings [4] = assay: adventitious root formation in intact etiolated Arabidopsis seedlings; type: in vivo; settings: intact etiolated seedlings; 50 nM, FIG. 17 legend 10 μM for one hour
# Method: as §1
# In a third assay utilizing an Arabidopsis model, induction of adventitious root AR formation in intact plants was examined in the presence of 50 nM of tested compounds, which included 5 days incubation in the dark, followed by a shift to the light, according to procedures described by Sorin et al. [Plant Cell 2005, 17:1343-1359].
# Conjugates prepared as described herein were evaluated in an Arabidopsis rooting model, according to procedures such as described hereinabove. Seeds were germinated and kept in the dark for 4 days. The etiolated seedlings were then incubated for 1 hour in 10 μM of each compound and then transferred to vertical MS medium-containing plates.
# Arabidopsis seedlings [5] = assay: split petri dish assay, separate shoot or root application in etiolated Arabidopsis seedlings; type: in vivo; settings: 10 μM
# Excerpt: The observation that AR enhancement in Eucalyptus cuttings was higher when 4-CPA conjugates were applied also to the leaves (as described in Example 3) prompted further investigation into the functions of shoot-derived 4-CPA. To this end, 4-CPA or Compounds 1p and it were applied specifically to roots or shoots of five-day old etiolated Arabidopsis seedlings using a split petri dish (as depicted in FIG. 26) and the effect on root elongation, lateral root (LR) formation and adventitious root (AR) formation was evaluated.
# Arabidopsis plants were germinated and grown in the dark for 5 days, then then transferred to petri dishes with a partition in the middle. Each half of these plates contained either medium alone or with 10 μM of 4-CPA or Compound 1p or 1tl. The etiolated seedlings were put on the plates with their collet region on the partition such that either the hypocotyl and cotyledons, or the root or both were in touch with the medium containing the tested compound. Adventitious roots and lateral roots were counted and the length of the primary root was measured after a week.
# [6] = tested on: avocado rootstock cuttings; assay: rooting of avocado rootstock cuttings; type: in vivo
# Outline: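 Green cuttings of avocado rootstock (including hard-to-root VC801) were treated with auxin conjugates in the presence of IBA and scored for rooting.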
# cannabis clone = assay: rooting of a difficult to root cannabis clone; type: in vivo; settings: 6000 ppm IBA with 50 μM compound for 1 minute; 2 weeks; vs IBA alone
# Method: Cannabis is usually an easy to root plant. […] A relatively difficult to root cannabis clone was treated with 6000 ppm IBA or with a similar treatment combined with 50 μM of Compound 82 (4-CPA-L-Trp sodium salt) for 1 minute. Rooting was scored after 2 weeks.
# [7] = tested on: argan (Argania spinosa) cuttings; assay: rooting of argan cuttings; type: in vivo; settings: after 1.5 months; compound with IBA, or IBA control
# Method: The ability of exemplary conjugates to promote rooting in plants which are recalcitrant to rooting (in addition to the results obtained with Eucalyptus grandis in Example 3) was examined using cuttings of argan (Argania spinosa) and jojoba (Simmondsia chinensis) in a commercial nursery (Shorashim). The argan and jojoba cuttings were treated with 100 μM of a conjugate (any of Compounds 10-1t) with 6000 ppm IBA. The common treatment T-8 (talc with 8000 ppm IBA and a fungicide) or 6000 ppm IBA (without conjugate) served as a control.
# Exemplary conjugates were also tested for rooting the hard-to-root species of avocado (VC801 rootstock) and argan, according to procedures described hereinabove.
# [8] = tested on: transgenic citrus rootstocks; assay: rooting of transgenic citrus rootstocks in tissue culture; type: in vivo; settings: 0% without compound, data not shown
# Excerpt: Compound 82 was also used to induce rooting of transgenic citrus rootstocks in tissue culture. It is well known that shoots created in tissue culture conditions following genetic modifications are typically difficult to root. Using Compound 82, 60% rooting was obtained, as compared to 0% without Compound 82 (data not shown).
# [9] = tested on: Eucalyptus brachyphylla cuttings; assay: rooting of Eucalyptus brachyphylla cuttings; type: in vivo; settings: K-IBA alone or with 100 μM compound
# Method: (§2) In order to investigate cloning of productive eucalyptus trees from cuttings, branches were excised from mature Eucalyptus x trabutii and Eucalyptus brachyphylla trees the field (in Kfar Pines, Israel)—selected based on their exceptional nectar production and honeybee attraction—placed in a humidified cooler box and brought to a climate-controlled greenhouse within 2 hours. Each cutting, 7 cm long, included three nodes with only two leaves remaining at its apical end. Two-thirds of each blade was excised to minimize evapotranspiration. The cutting bases were submerged for 1 minute in 6 grams/liter indole-3-butyric acid potassium salt (K-IBA), optionally supplemented with Compound 1s or 1t at a concentration of 100 μM. In addition, the leaves were sprayed with 100 μM of each compound in the presence of 0.05% Triton X-100 surfactant. Stock solutions of Compounds 1s and 1t were at a concentration of 100 mM in DMSO. The cuttings were planted in rooting medium containing peat, vermiculite and polystyrene flakes at a ratio of 1:2:3 respectively, on a heated rooting table under 90% humidity. Fungicides were applied to the rooting media on a weekly basis. Rooting percentage, number of roots per cutting and root length were measured after 1 and 2 weeks and after 1 and 2 months.
# [10] = tested on: cuttings from mature Eucalyptus grandis trees; settings: literature value for this model (Abu-Abied et al. 2012); cited from earlier work
# [11] = tested on: Eucalyptus x trabutii cuttings; assay: rooting of Eucalyptus x trabutii cuttings; type: in vivo; settings: K-IBA alone or with 100 μM compound
# Method: as §2
compound,measurement,setting,value
"COC(=O)[C@@H](NC(=O)COc1ccc(Cl)cc1)C(C)C [Compound 1p, 4-CPA-L-Val]",effect on root tip and root elongation zone,DR5:venus marker,"loss of auxin activity at the root tip, and swelling of the root elongation zone"
same,"effect on AR formation in mung bean cuttings, in words","mung bean cuttings; tested at 2, 10 or 50 μM",induced rooting only at low concentrations
same,"effect on root elongation relative to control, in words",Arabidopsis seedlings [1]; 50 nM,inhibited root elongation relative to control
same,time course of root elongation inhibition,"Arabidopsis seedlings [1]; 50 nM, slight inhibition until day 3, complete from day 4",biphasic behavior
same,percentage of adventitious root formation (rooting),[2]; 6000 ppm IBA and 100 μM conjugate by submersion of base plus spraying of foliage,51±8%
same,appearance of the roots compared with IBA alone,"[2]; 6000 ppm IBA with 100 μM compound, submersion and spraying",appeared more branched
same,"rooting in combination with IBA compared with IBA alone, in words",[3],at least as potent as that of their corresponding D-amino acid conjugates
same,adventitious roots formed on average,Arabidopsis seedlings [4],7±1.4
same,effect on root growth of application to the shoot compared with application directly to the root,Arabidopsis seedlings [5]; 24 hours on split dish,even stronger
same,"adventitious root formation, exposure of shoots compared to exposure of roots",Arabidopsis seedlings [5]; split dish,significantly more adventitious root formation
same,"lateral root formation, shoot application compared with root application",Arabidopsis seedlings [5]; split dish,inhibited lateral root formation more efficiently than application to roots
"O=C(COc1ccc(Cl)cc1)N[C@@H](Cc1c[nH]c2ccccc12)C(=O)[O-].[Na+] [Compound 82, 4-CPA-L-Trp sodium salt]","root architecture / root length of VC801 avocado cuttings compared to IBA control, in words",[6]; VC801 rootstock,considerably increased root length
same,"DR5 fluorescence (auxin activity), in words",DR5:venus marker,about as active as their non-water soluble methyl esters
same,"number of roots in cannabis, in words",cannabis clone,significant increase in number of roots
same,"rooting percentage in cannabis, in words",cannabis clone,small increase in the rooting percentage
same,rooting in argan clone YM3,[7],80%
same,roots per cutting in argan clone YM3,[7],about 7
same,rooting of transgenic citrus rootstocks,[8],60%
"O=C(O)CCCc1c[nH]c2ccccc12 [IBA, indole-3-butyric acid, reference compound]",rooting of VC801 avocado cuttings,"[6]; VC801 rootstock, conjugate, or IBA control",about 35%
same,rooting rate of etiolated avocado branches,"[6]; vc51 rootstock, IBA",80%
same,rooting rate of green avocado branches,"[6]; vc51 rootstock, IBA",10%
same,"mean root number per cutting, E. brachyphylla",[9],about 4
same,rooting of mung bean cuttings (number of roots per cutting),"mung bean cuttings; Table 1, water control 29.6",81.0
same,rooting of mung bean cuttings (number of roots per cutting),mung bean cuttings; Table 2,101
same,rooting in argan clone YM3,[7],50%
same,roots per cutting in argan clone YM3,[7],2-3
same,root development in the presence of IBA potassium salt,[10],5-15%
same,"effect on root elongation relative to control, in words",Arabidopsis seedlings [1]; 50 nM,no apparent inhibitory effect on root elongation
same,concentration required to inhibit root elongation,"Arabidopsis seedlings [1]; 4 day old seedlings, 5 days on vertical plates",1 to 10 µM
same,"mean root number per cutting, E. x trabutii",[11],about 5
same,"percentage of cuttings which exhibited rooting, stand-alone treatment","[2]; 100 μM conjugate without IBA, or 28 mM (6000 ppm) IBA alone, submerging base or spraying, scored after 45-60 days",12%
same,"rooting of cuttings, repeated experiment in a different season","[2]; Example 12 repeat: 6000 ppm IBA with 50 μM conjugate, or IBA control",10%
